“Also recorded” adds a separate entry of the source. Where no end group is shown, it is not given here.
Tests used:
[1] = system: NOS3; settings: endothelial cells, inhibition and dominant negative experiments, via S114 phosphorylation; ref [10]; cited from earlier work
[2] = system: NOS3; assay: In vitro kinase assay with NOS3, phospho-specific immunoblotting; type: biochemical, human; settings: active kinases with NOS3, 5 and 60 min
Method: (§1) Active (HIS‐NOS3) was incubated alone or with individual kinases (ERK2, p38α, JNK1α1, and PKA) in 100 µL reaction buffer (20 mM HEPES, 0.5 mM DTT, 5 mM MgCl2, 0.5 mM ATP, and 10% glycerol at a pH of 7.4). The reactions were performed at 22‐25 °C for up to 1 h, and for the examination of nitric oxide activity, samples were incubated on ice for the immediate detection of NO via the oxyhemoglobin to methemoglobin assay (see below). For immunoblotting analysis to examine phosphorylation, kinase samples were quenched with 2× sample buffer spiked with 25 mM DTT and heated to 95 °C for 5 min. Boiled samples (at equal volumes) were electrophoresed and transferred to PDVF for immunoblot staining.
All samples were loaded at equal volumes on 3–8% gradient tris‐acetate gels. All gels were transferred to PVDF membranes and transferred for either 2 h at 40V or for 20V overnight. Membranes were blocked with one block (Li‐Cor Biosciences) for 30 m and incubated with respective antibodies (at manufacturers recommend concentrations for immunoblotting, 1 : 500 for the anti‐pS600‐NOS3) overnight at 4 °C. Blots were brought to RT for 30 m and washed 3× with 1X TBST for 10 m, probed with a fluorometric secondary antibody (Li‐Cor IRDye®) for 1 h, and washed before visualizing with a Li‐Cor Odyssey.

[3] = system: NOS3; assay: Oxyhemoglobin assay of NO production by kinase-treated NOS3; type: biochemical, human; settings: oxyHb assay, 2.5 µM NOS3 with ERK2 14 nM (N = 10), p38α 14 nM (N = 4), JNK1α1-GST 63 nM (N = 3) or PKA 14 nM (N = 4), 30 min; versus untreated NOS3
Method: as §1
The oxyhemoglobin assay (oxyHb assay) is a spectroscopic method that measures the oxidative reaction of oxyhemoglobin at 421 nm (oxyHb) and methemoglobin (metHb) at 401 nm. Kinase assay reactions quenched on ice were used to measure NO synthesis and consumption. All oxyHb reactions were performed at 25 °C in a BioTek 96‐well UV‐visible spectrophotometer. Each reaction (100 µL total volume) was mixed with 40 µL of reaction buffer (1 μM FAD, 1 μM FMN, 10% glycerol, 12 nM BH4, 100 μM L‐arginine, 10 mM Tris/HCl, pH 7.5 at 25°, 250 μM CaCl2, 0.20 mg·mL^−1 BSA, 0.31 mg Hemoglobin, 7–10 U Superoxide Dismutase, 7–10 U Catalase, and 17 μg Calmodulin) and up to 40 µL (6–10 µg) of phosphorylated NOS3. Absorbance at 401 nm and 421 nm were read for 1 m at 15‐s intervals. To initiate the reaction, 20 µL of 200 mM NADPH reconstituted in Tris/HCl (1.4 M pH 7.5 at room temperature) was added. Measurements were recorded for 10 min at 15‐s intervals.
To calculate NOS3 activity, the change in absorbance/unit time was divided by the extinction coefficient (ε401‐421 = 77 200 M ^−1cm^−1 (ε401 = 38 600 M ^−1cm^−1)). This yielded NOS3 activity in units of molar change/unit time. Activity of kinase exposed NOS3 was compared to the NOS3 control activity (comparably treated NOS3 but not phosphorylated), and the data are presented as a percent of the control NOS3.

[4] = system: NOS3; settings: earlier work, ERK2-treated NOS3; ref [6]; cited from earlier work
[5] = system: NOS3; settings: previous report, different (SignalChem GST) ERK2, bovine NOS3; ref [6]; cited from earlier work
Method: Portions of the NOS3 phosphorylation assays were analyzed for nitric oxide production, using PKA as a positive control. […] It is important to note that we cannot interpret the degree of NOS3 phosphorylation, just that NOS3 was phosphorylate ...

[6] = molecular target: NOS3; settings: full-length NOS3; previously reported; ref [4]; cited from earlier work
Text: While there is substantial nonspecific binding inherent in the NOS1 sample, it is quite clear that there is no observable specific binding. […] This was not surprising since others have qualitatively shown an interaction between NOS3 and JNK [10] and the MAP kinases have similarities in the requirements of binding to activators and substrates. Lack of binding to NOS1 by all three MAP kinases examined thus far strengthens the interpretation that NOS3 is a node for MAP kinase signaling, while NOS1 and NOS2 are not.

[7] = system: NOS1; settings: previous studies; ref [4]; cited from earlier work
Text: While there is substantial nonspecific binding inherent in the NOS1 sample, it is quite clear that there is no observable specific binding. […] The NOS1 isoform lacks the pentabasic sequence in the autoinhibitory loop that we hypothe ...

[8] = system: ERK-NOS3 complexes; set-up: method as in PMID 10899167; settings: BAECs treated with bradykinin; ref [9]; cited from earlier work

Substance: JNK2: JNK2, shown to inhibit cellular NO production
- cellular NO production [1]: inhibited cellular NO production

Substance: mitogen‐activated protein kinase 1 [ERK2]
- phosphorylation of NOS3 at S114 ([2]; immunoblot with anti-pS114): did not meaningfully phosphorylate S114 when compared to JNK1α1 and p38α
- phosphorylation of NOS3 at S600 ([2]; immunoblot with anti-pS600): at S600; also recorded: phosphorylates S600; also recorded: robust when compared to JNK1α1
- NO production / NOS3 activity [3]: do not significantly change NO production; also recorded: did not alter in vitro NOS3 activity
- conformation of NOS3 [4]: presented an altered conformation from untreated NOS3
- inhibition of NOS3 activity [5]: approximately 50%
- Kd [6]: 160 nM
- binding to NOS1 [7]: no binding to NOS1

Substance: RPPGFSPFR [bradykinin]
- effect on ERK-NOS3 complexes [8]: caused ERK to disassociate from NOS3 complexes and over time the complex reassociated

Source: publication PMC9063426, “MAP kinases differentially bind and phosphorylate NOS3 via two unique NOS3 sites” (FEBS Open Bio, 2022)
